# Laboratory results: patent US10076522B2, “Systems and methods for treating bacterial infection” (priority 2016, dated 2018)
# “Also recorded” adds a separate entry of the source.
# Experiments:
# [1] = target: T1, hERG-mediated potassium current (Homo sapiens, UniProt Q12809); experiment: Inhibition of hERG-mediated potassium current in transfected CHO cells; assay type: cell-based; details: reversible inhibition
# T1 construct: expressed in transfected cells; host or cells: CHO (Chinese Hamster Ovary) cells
# T1 sequence (Q12809 whole entry): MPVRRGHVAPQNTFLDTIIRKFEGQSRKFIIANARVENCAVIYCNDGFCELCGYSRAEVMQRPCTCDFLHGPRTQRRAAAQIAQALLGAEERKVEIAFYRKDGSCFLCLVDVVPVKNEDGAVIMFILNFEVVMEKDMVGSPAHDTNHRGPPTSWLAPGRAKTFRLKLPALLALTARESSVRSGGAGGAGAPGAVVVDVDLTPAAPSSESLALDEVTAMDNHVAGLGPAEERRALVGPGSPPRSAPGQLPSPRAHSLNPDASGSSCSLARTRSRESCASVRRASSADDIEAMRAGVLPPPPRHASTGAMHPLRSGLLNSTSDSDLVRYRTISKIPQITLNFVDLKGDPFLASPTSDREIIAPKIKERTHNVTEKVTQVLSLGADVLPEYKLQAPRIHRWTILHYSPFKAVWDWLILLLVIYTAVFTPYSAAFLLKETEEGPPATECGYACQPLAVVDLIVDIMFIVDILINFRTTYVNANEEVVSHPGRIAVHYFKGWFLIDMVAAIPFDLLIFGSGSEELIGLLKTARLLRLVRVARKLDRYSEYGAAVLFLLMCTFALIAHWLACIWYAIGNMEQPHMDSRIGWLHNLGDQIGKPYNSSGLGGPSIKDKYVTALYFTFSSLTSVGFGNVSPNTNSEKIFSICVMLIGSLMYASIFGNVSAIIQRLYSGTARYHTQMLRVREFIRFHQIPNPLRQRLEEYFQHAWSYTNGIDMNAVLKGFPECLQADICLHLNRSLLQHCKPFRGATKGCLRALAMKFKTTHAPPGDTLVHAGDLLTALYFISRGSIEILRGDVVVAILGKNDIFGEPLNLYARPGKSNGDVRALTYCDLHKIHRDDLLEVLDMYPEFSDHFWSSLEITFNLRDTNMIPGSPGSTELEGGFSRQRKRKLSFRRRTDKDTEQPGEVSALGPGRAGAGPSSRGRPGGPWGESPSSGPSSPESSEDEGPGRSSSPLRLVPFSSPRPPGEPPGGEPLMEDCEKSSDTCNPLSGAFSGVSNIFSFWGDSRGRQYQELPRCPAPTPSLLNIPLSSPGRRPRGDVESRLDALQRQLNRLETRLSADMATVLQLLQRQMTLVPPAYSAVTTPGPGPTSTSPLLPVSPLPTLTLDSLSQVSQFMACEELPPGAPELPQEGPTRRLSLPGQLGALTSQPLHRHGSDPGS
# SCNSA sodium channel = SCNSA sodium channel (Homo sapiens, UniProt Q14524); experiment: Sodium channel inhibition
# Chain of SCNSA sodium channel (Q14524 whole entry): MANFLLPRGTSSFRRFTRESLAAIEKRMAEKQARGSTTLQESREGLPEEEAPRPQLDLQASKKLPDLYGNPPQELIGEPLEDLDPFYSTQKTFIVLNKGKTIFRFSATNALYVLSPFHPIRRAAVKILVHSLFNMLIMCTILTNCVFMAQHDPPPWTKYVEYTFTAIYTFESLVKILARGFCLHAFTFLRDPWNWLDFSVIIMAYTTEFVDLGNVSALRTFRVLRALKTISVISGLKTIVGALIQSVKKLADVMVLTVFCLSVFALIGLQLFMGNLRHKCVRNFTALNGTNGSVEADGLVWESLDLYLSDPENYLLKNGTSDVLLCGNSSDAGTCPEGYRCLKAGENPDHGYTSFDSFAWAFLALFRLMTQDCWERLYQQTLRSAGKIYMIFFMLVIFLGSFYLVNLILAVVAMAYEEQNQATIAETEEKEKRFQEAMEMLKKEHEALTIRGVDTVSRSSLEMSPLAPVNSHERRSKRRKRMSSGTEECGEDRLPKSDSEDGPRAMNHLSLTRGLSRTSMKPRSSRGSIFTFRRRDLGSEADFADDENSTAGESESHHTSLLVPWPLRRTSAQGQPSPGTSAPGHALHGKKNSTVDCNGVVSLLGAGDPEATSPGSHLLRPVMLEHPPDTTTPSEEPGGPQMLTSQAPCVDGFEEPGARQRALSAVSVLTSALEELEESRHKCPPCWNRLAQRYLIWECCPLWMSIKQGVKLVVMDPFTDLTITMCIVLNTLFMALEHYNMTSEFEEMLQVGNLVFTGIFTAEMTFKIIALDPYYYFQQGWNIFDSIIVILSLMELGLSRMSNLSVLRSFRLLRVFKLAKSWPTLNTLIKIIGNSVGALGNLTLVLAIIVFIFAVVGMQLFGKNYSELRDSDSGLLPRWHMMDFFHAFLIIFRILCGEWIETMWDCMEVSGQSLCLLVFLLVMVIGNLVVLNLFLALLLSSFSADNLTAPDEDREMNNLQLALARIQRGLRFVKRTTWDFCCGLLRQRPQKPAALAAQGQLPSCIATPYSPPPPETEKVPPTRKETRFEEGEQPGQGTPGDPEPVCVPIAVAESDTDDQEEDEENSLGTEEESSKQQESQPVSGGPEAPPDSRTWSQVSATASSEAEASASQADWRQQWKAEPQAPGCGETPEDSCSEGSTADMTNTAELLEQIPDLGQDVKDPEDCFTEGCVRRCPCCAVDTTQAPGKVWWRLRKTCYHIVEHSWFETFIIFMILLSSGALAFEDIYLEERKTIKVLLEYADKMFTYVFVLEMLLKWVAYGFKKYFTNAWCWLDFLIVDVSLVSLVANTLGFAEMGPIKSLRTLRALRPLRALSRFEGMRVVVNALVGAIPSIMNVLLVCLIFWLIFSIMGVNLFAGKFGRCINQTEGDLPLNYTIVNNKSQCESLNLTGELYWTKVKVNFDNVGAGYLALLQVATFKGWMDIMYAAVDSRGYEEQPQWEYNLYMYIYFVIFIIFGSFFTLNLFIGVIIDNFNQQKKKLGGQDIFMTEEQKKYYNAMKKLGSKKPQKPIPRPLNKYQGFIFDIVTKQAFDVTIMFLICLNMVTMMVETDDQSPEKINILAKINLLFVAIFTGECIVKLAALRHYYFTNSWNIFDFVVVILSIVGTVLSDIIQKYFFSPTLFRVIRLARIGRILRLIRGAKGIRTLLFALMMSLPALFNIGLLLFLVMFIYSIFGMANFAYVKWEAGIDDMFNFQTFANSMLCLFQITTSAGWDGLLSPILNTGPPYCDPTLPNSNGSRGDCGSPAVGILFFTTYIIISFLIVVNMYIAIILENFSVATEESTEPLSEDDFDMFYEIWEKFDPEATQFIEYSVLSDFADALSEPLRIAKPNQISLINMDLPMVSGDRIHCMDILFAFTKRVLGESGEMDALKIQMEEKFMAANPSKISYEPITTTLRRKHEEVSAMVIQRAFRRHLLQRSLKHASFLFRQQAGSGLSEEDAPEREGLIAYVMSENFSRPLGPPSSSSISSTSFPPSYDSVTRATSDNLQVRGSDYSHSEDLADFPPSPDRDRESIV
# [2] = Single-dose ECG study in healthy human volunteers (1.6 and 3.2 mg/kg over 30 minutes); assay type: in vivo
# Description: Based on this, a single-dose ECG-study was conducted in healthy human volunteers, where 1.6 mg/kg and 3.2 mg/kg iclaprim was infused over 30 minutes. […] Maximal increases coincided with Cmax levels and were rapidly reversible. Weight-based dosing with 1.6 mg/kg was thus assessed as acceptable for clinical purposes, whereas weight-based dosing at 3.2 mg/kg was associated with relevant QTc prolongations (>60 msec) and nonspecific T-wave alterations, and was not used for further clinical studies.
# clinical [3] = details: human, in vivo, iv, 0.8 mg/kg, mean Cmax
# Description: For example, the PK profile of 0.8 mg/kg iclaprim administered by IV was investigated in 8 subjects with mild to moderate obesity (body mass index or “BMI” 30-40) and in 8 subjects with severe obesity (BMI>40). […] Linear regression analysis indicated a strong linear relationship between AUC (and Cmax) and BMI. Thus it was clear that the body composition of the subject affected the pharmacokinetics of IV administered iclaprim, with a greater percentage of body fat causing an increase in AUC and Cmax. […] Thus there is a risk of overdosing subjects with moderate hepatic impairment, which can be mitigated by reducing the IV iclaprim dose by about 50%.
# [4] = human, in vivo
# cSSSIs = experiment: Phase III ASSIST trials, efficacy in cSSSI; assay type: in vivo, human; details: 0.8 mg/kg over 0.5 hr q12h IV
# Source text: Without wishing to be bound by a particular theory, one observed disadvantage of the weight-based dosing in the previous Phase III studies is that the post-antibiotic effect achieved by the weight-based doses was not enough to sustain the T>MIC between doses. Sufficient efficacy might be achieved by increasing the amount of iclaprim administered to the subject. However, as discussed above, simply increasing the weight-based dose of iclaprim risks causing QTc prolongation.
# [5] = Phase III REVIVE-1 study, safety (adverse events)
# Description: All subjects who received any study drug were evaluated for safety on the basis of medical history and physical examinations, reports of clinical AEs, routine electrocardiography, and clinically significant findings from routine liver function tests, serum chemistry, hematology, coagulation, and urinalysis (UA) tests. All adverse events were recorded throughout the study period, up to and including the LFU phone call. While blinded to treatment assignment, the investigator categorized the severity of each AE and the potential for relationship to study drug. Serious AEs (SAEs) include those that were life threatening, led to prolongation of the existing hospitalization, a congenital anomaly/birth defect, or caused persistent or significant disability, incapacity, or death. Treatment-emergent AEs (TEAEs) were defined as those that start or worsen in severity during or after the first dose of study drug administration through end of study.
# Safety evaluation included incidence of TEAEs, laboratory test results (including liver function tests), vital signs, ECG results, and physical examination findings. All summaries of safety data was based on the safety population (all treated subjects).
# The AE summary tables included subject (patient) counts. Therefore, if a subject experienced more than one episode of a particular AE, the subject was counted only once for that event. If a subject had more than one AE that was coded to the same preferred term, the subject was counted only once for that preferred term. Similarly, if a subject had more than one AE within a SOC, the subject was counted only once in that SOC.
# [6] = tested on: isolated rabbit Purkinje fibers
# [7] = both, human, in vivo
# Description: A second single-dose ECG study was conducted on healthy human volunteers using weight-based doses of 0.4 mg/kg and 0.8 mg/kg iclaprim base infused over 30 minutes and 1.6 mg/kg infused over 60 minutes.
# [8] = in vivo
# clinical [9] = details: human, in vivo
# clinical [10] = details: human, in vivo, 1 mg/kg
# [11] = Exposure to iclaprim in Phase I studies; details: human, plasma, intravenous, HMR 01-014, Multiple Dose Q12H × 9 days, arithmetic mean
# [12] = 13-week toxicology study in the rat, AUC at NOAEL; details: in vivo
# [13] = 13-week toxicology study in the marmoset, AUC at NOAEL; details: monkey, in vivo
# [14] = 150 mg, 150 mg/EtOH & NS (20 min)
compound,measurement,setting,value
COc1cc(Cc2cnc(N)nc2N)c2c(c1OC)OC(C1CC1)C=C2 (racemic) [Iclaprim],IC50,[1],900 nM
same,IC50,SCNSA sodium channel,95 µM
same,QTc prolongations,[2]; 3.2 mg/kg infused over 30 minutes,> 60 ms
same,effect on QTc interval,"[2]; 1.6 and 3.2 mg/kg infused over 30 minutes, dose-dependent",prolonged the QTc interval
same,Cmax,clinical [3],854 ng/mL
same,adverse events related to QTc prolongation,[4],4 cases
same,"efficacy, non-inferiority (−10% margin) to linezolid",cSSSIs,did not meet the FDA criteria of non-inferiority to linezolid; also recorded: failed to show efficacy
same,"Deaths, number of subjects",[5]; REVIVE-1 safety population,0
same,"Deaths, percent of subjects",[5]; REVIVE-1 safety population,0.0%
same,"Study drug related TEAEs, number of subjects","[5]; human, in vivo",57
same,"Study drug related TEAEs, percent of subjects","[5]; human, in vivo",19.5%
same,"TEAE-related SAEs (Serious AEs), number of subjects","[5]; human, in vivo",8
same,"TEAE-related SAEs (Serious AEs), percent of subjects","[5]; human, in vivo",2.7%
same,"TEAEs (Treatment Emergent Adverse Events), number of subjects","[5]; human, in vivo",151
same,"TEAEs (Treatment Emergent Adverse Events), percent of subjects","[5]; human, in vivo",51.5%
same,"TEAEs leading to discontinuation of study drug, number of subjects","[5]; human, in vivo",8
same,"TEAEs leading to discontinuation of study drug, percent of subjects","[5]; human, in vivo",2.7%
same,concentration above which action potential duration was increased,[6],above 1 μM
same,post-infusion QTcF prolongation from baseline (any subject),[7],≤ 60 ms
same,dose-related increase in QTc,[8],did not
same,AUC,clinical [9]; 0.25 mg/kg,598 ± 270 ng·h/mL
same,Cmax,clinical [9]; 0.25 mg/kg,686 ± 279 ng/mL
same,AUC,clinical [9]; 0.5 mg/kg,996 ng·h/mL
same,AUC,clinical [9]; 1 mg/kg,1980 ng·h/mL
same,AUC,clinical [9]; 2 mg/kg,4040 ng·h/mL
same,AUC,clinical [9]; 4 mg/kg,6810 ng·h/mL
same,Cmax,clinical [9]; 4 mg/kg,4020 ng/mL
same,Cmax,clinical [10],792 ng/mL
same,AUC,"[11]; 75 mg, 75 mg/10% PG (20 min)",1660 ng·h/mL
same,Cmax,"[11]; 75 mg, 75 mg/10% PG (20 min)",1290 ng/mL
same,AUC,"[11]; 150 mg, 150 mg/10% PG (20 min)",3600 ng·h/mL
same,AUC,[11]; [14],3220 ng·h/mL
same,Cmax,"[11]; 150 mg, 150 mg/10% PG (20 min)",2350 ng/mL
same,Cmax,[11]; [14],1870 ng/mL
same,AUC at 13 week,[12]; female,20400 ng·h/mL
same,AUC at 13 week,[12]; male,7260 ng·h/mL
same,AUC at 13 week,[13]; female,26600 ng·h/mL
same,AUC at 13 week,[13]; male,26900 ng·h/mL
